Laboratory results: patent US10307413B2, “Tetrahydro- and dihydro-isoquinoline PRMT5 inhibitors and uses thereof” (Epizyme, Inc., priority 2013, dated 2019)
Where two headings read alike, the source gives them in different places.

How the values were obtained:
[1] = tested on: symmetric di-methyl arginine in Z-138 cells; experiment: Z-138 Methylation Assay (In Cell Western for symmetric di-methyl arginine and DNA content); type: cell-based; conditions: read-out: ICW EC50
Text: [formula] [formula] Where top and bottom are the normally allowed to float, but may be fixed at 100 or 0 respectively in a 3-parameter fit. The Hill Coefficient normally allowed to float but may also be fixed at 1 in a 3-parameter fit. Y is the % inhibition and X is the compound concentration.
RPMI/Glutamax medium, penicillin-streptomycin, heat inactivated fetal bovine serum, and D-PBS were purchased from Life Technologies, Grand Island, N.Y., USA. Odyssey blocking buffer, 800CW goat anti-rabbit IgG (H+L) antibody, and Licor Odyssey infrared scanner were purchased from Licor Biosciences, Lincoln, Nebr., USA. Symmetric di-methyl arginine antibody was purchased from EMD Millipore, Billerica, Mass., USA. 16% Paraformaldehyde was purchased from Electron Microscopy Sciences, Hatfield, Pa., USA.
Cell Treatment, in Cell Western (ICW) for Detection of Symmetric Di-Methyl Arginine and DNA Content.
Z-138 cells were seeded in assay medium at a concentration of 50,000 cells per mL to a 384-well cell culture plate with 50 μL per well. Compound (100 nL) from 384 well source plates was added directly to 384 well cell plate. Plates were incubated at 37° C., 5% CO2 for 96 hours. […] Plates were incubated at room temperature for 30 minutes then incubated at 37° C., 5% CO2 for 5 hours. After the incubation, 40 μL per well of 8% paraformaldehyde in PBS (16% paraformaldahyde was diluted to 8% in PBS) was added to each plate and incubated for 30 minutes. […] Next 30 μL per well of Odyssey blocking buffer were added to each plate and incubated 1 hour at room temperature. Blocking buffer was removed and 20 μL per well of primary antibody was added (symmetric di-methyl arginine diluted 1:100 in Odyssey buffer with 0.1% Tween 20 (v/v)) and plates were incubated overnight (16 hours) at 4° C. Plates were washed 5 times with 100 μL per well of wash buffer. Next 20 μL per well of secondary antibody was added (1:200 800CW goat anti-rabbit IgG (H+L) antibody, 1:1000 DRAQ5 (Biostatus limited) in Odyssey buffer with 0.1% Tween 20 (v/v)) and incubated for 1 hour at room temperature. The plates were washed 5 times with 100 μL per well wash buffer then 1 time with 100 μL per well of water. Plates were allowed to dry at room temperature then imaged on the Licor Odyssey machine which measures integrated intensity at 700 nm and 800 nm wavelengths. Both 700 and 800 channels were scanned.
First, the ratio for each well was determined by:
Each plate included fourteen control wells of DMSO only treatment (minimum inhibition) as well as fourteen control wells for maximum inhibition treated with 3 μM of a reference compound (Background wells). The average of the ratio values for each control type was calculated and used to determine the percent inhibition for each test well in the plate. Reference compound was serially diluted three-fold in DMSO for a total of nine test concentrations, beginning at 3 μM. Percent inhibition was determined and IC50 curves were generated using triplicate wells per concentration of compound. Percent Inhibition=100−

[2] = tested on: Z-138 cell line; experiment: Z-138 Proliferation Assay (Cell Titer Glo, 5 days); type: cell-based; conditions: Homo sapiens, 120 h; Z-138 cells, 5 days; read-out: Proliferation EC50
Text: RPMI/Glutamax medium, penicillin-streptomycin, heat inactivated fetal bovine serum were purchased from Life Technologies, Grand Island, N.Y., USA. V-bottom polypropylene 384-well plates were purchased from Greiner Bio-One, Monroe, N.C., USA. Cell culture 384-well white opaque plates were purchased from Perkin Elmer, Waltham, Mass., USA. Cell-Titer Glo® was purchased from Promega Corporation, Madison, Wis., USA. SpectraMax M5 plate reader was purchased from Molecular Devices LLC, Sunnyvale, Calif., USA.
A compound source plate was prepared by performing triplicate nine-point 3-fold serial dilutions in DMSO, beginning at 10 mM (final top concentration of compound in the assay was 20 μM and the DMSO was 0.2%). A 100 nL aliquot from the compound stock plate was added to its respective well in the cell plate. […] After addition of compounds, assay plates were incubated for 5 days at 37° C., 5% CO2, relative humidity >90%.
Cell viability was measured by quantitation of ATP present in the cell cultures, adding […] of Cell Titer Glo® reagent to the cell plates. Luminescence was read in the SpectraMax M5 microplate reader. The concentration of compound inhibiting cell viability by 50% was determined using a 4-parametric fit of the normalized dose response curves.

Structure (SMILES) | EC50 ([1]; Homo sapiens) [nM] | EC50 [2] [nM] | EC50 [1] [nM]
O=C(NCC(O)CN1CCc2ccccc2C1)c1cccc(-c2ccccn2)c1 (centres unmarked) [Compound 1, N-(3-(3,4-dihydroisoquinolin-2(1H)-yl)-2-hydroxypropyl)-3-(pyridin-2-yl)benzamide] | < 100 | 1000 to 10000 | –
Cn1nccc1-c1cccc(C(=O)NCC(O)CN2CCc3ccccc3C2)c1 (centres unmarked) [Compound 2, N-(3-(3,4-dihydroisoquinolin-2(1H)-yl)-2-hydroxypropyl)-3-(1-methyl-1H-pyrazol-5-yl)benzamide] | < 100 | 1000 to 10000 | –
O=C(NC[C@H](O)CN1CCc2ccccc2C1)c1ccccc1 [Compound 3, (S)—N-(3-(3,4-dihydroisoquinolin-2(1H)-yl)-2-hydroxypropyl)benzamide] | < 100 | 1000 to 10000 | –
O=C(NC[C@H](O)CN1CCc2ccccc2C1)Nc1ccccc1 [Compound 5] | 101 to 1000 | > 20000 | –
O=C(NCC(O)CN1CCc2ccccc2C1)c1cccc(-c2cccnc2)c1 (centres unmarked) [Compound 8, N-(3-(3,4-dihydroisoquinolin-2(1H)-yl)-2-hydroxypropyl)-3-(pyridin-3-yl)benzamide] | < 100 | 1000 to 10000 | –
O=C(NCC(O)CN1CCc2ccccc2C1)c1cccc(-c2ccncc2)c1 (centres unmarked) [Compound 9, N-(3-(3,4-dihydroisoquinolin-2(1H)-yl)-2-hydroxypropyl)-3-(pyridin-4-yl)benzamide] | < 100 | 1000 to 10000 | –
O=C(NCC(O)CN1CCc2ccccc2C1)c1cccc(-c2cc[nH]n2)c1 (centres unmarked) [Compound 10] | 101 to 1000 | 1000 to 10000 | –
O=C(NC[C@@H](O)CN1CCc2ccccc2C1)Oc1ccccc1 [Compound 11, (R)-phenyl (3-(3,4-dihydroisoquinolin-2(1H)-yl)-2-hydroxypropyl)carbamate] | 1000 to 10000 | – | –
O=C(NCC(O)CN1CCc2ccccc2C1)c1ccc(-c2ccccn2)cc1 (centres unmarked) [Compound 13, N-(3-(3,4-dihydroisoquinolin-2(1H)-yl)-2-hydroxypropyl)-4-(pyridin-2-yl)benzamide] | < 100 | 101 to 1000 | –
O=C(NCC(O)CN1CCc2ccccc2C1)c1cccc(N2CCOCC2)c1 (centres unmarked) [Compound 14, N-(3-(3,4-dihydroisoquinolin-2(1H)-yl)-2-hydroxypropyl)-3-morpholinobenzamide] | 101 to 1000 | 1000 to 10000 | –
O=C(NCC(O)CN1CCc2ccccc2C1)c1cccc(CNC2CCOCC2)c1 (centres unmarked) [Compound 15, N-(3-(3,4-dihydroisoquinolin-2(1H)-yl)-2-hydroxypropyl)-3-(((tetrahydro-2H-pyran-4-yl)amino)methyl)benzamide] | 101 to 1000 | 10000 to 50000 | –
O=C(NCC(O)CN1CCc2ccccc2C1)c1cccc(NC2CCOCC2)c1 (centres unmarked) [Compound 16, N-(3-(3,4-dihydroisoquinolin-2(1H)-yl)-2-hydroxypropyl)-3-((tetrahydro-2H-pyran-4-yl)amino)benzamide] | < 100 | 101 to 1000 | –
O=C(NC[C@@H](O)CN1CCc2ccccc2C1)c1cccc(-c2ccccn2)c1 [Compound 19] | 101 to 1000 | 10000 to 50000 | –
O=C(NC[C@H](O)CN1CCc2ccccc2C1)c1cccc(-c2ccccn2)c1 [Compound 20] | < 100 | 101 to 1000 | –
CS(=O)(=O)Nc1cccc(C(=O)NCC(O)CN2CCc3ccccc3C2)c1 (centres unmarked) [Compound 24] | 101 to 1000 | 1000 to 10000 | –
CN(C)CCOc1cccc(C(=O)NCC(O)CN2CCc3ccccc3C2)c1 (centres unmarked) [Compound 28, N-(3-(3,4-dihydroisoquinolin-2(1H)-yl)-2-hydroxypropyl)-3-(2-(dimethylamino)ethoxy)benzamide] | 101 to 1000 | 10000 to 50000 | –
O=C(NCC(O)CN1CCc2ccccc2C1)c1cccc(CN2CCNCC2)c1 (centres unmarked) [Compound 29] | 101 to 1000 | 1000 to 10000 | –
CN1CCN(Cc2cccc(C(=O)NCC(O)CN3CCc4ccccc4C3)c2)CC1 (centres unmarked) [Compound 30, N-(3-(3,4-dihydroisoquinolin-2(1H)-yl)-2-hydroxypropyl)-3-((4-methylpiperazin-1-yl)methyl)benzamide] | 101 to 1000 | 1000 to 10000 | –
CN1CCCC1c1cccc(C(=O)NCC(O)CN2CCc3ccccc3C2)c1 (centres unmarked) [Compound 34, N-(3-(3,4-dihydroisoquinolin-2(1H)-yl)-2-hydroxypropyl)-3-(1-methylpyrrolidin-2-yl) benzamide] | 101 to 1000 | 10000 to 50000 | –

Structure (SMILES) | EC50 ([1]; Homo sapiens) [nM] | EC50 [2] [nM] | EC50 [1] [nM]
O=C(NCC(O)CN1CCc2ccccc2C1)c1cccc(N2CCNCC2)c1 (centres unmarked) [Compound 35, N-(3-(3,4-dihydroisoquinolin-2(1H)-yl)-2-hydroxypropyl)-3-(piperazin-1-yl)benzamide] | 101 to 1000 | 10000 to 50000 | –
CN1CCN(c2cccc(C(=O)NCC(O)CN3CCc4ccccc4C3)c2)CC1 (centres unmarked) [Compound 36] | 101 to 1000 | 10000 to 50000 | –
O=C(NCC(O)CN1CCc2ccccc2C1)c1cccc(C2CCNC2)c1 (centres unmarked) [Compound 37] | 101 to 1000 | > 20000 | –
CN1CCC(c2cccc(C(=O)NCC(O)CN3CCc4ccccc4C3)c2)C1 (centres unmarked) [Compound 38, N-(3-(3,4-dihydroisoquinolin-2(1H)-yl)-2-hydroxypropyl)-3-(1-methylpyrrolidin-3-yl)benzamide] | 101 to 1000 | 10000 to 50000 | –
Cc1c(NC2CCOCC2)cccc1C(=O)NCC(O)CN1CCc2ccccc2C1 (centres unmarked) [Compound 40, N-(3-(3,4-dihydroisoquinolin-2(1H)-yl)-2-hydroxypropyl)-2-methyl-3-((tetrahydro-2H-pyran-4-yl)amino)benzamide] | < 100 | 1000 to 10000 | –
CCN(c1cccc(C(=O)NCC(O)CN2CCc3ccccc3C2)c1C)C1CCOCC1 (centres unmarked) [Compound 41] | < 100 | 1000 to 10000 | –
O=C(NC[C@@H](O)CN1CCc2ccccc2C1)c1cccc(NC2CCOCC2)c1 [Compound 43] | 101 to 1000 | 1000 to 10000 | –
O=C(NC[C@H](O)CN1CCc2ccccc2C1)c1cccc(NC2CCOCC2)c1 [Compound 44, (S)—N-(3-(3,4-dihydroisoquinolin-2(1H)-yl)-2-hydroxypropyl)-3-((tetrahydro-2H-pyran-4-yl)amino)benzamide] | – | 101 to 1000 | –
O=C(NCC(O)CN1CCc2ccccc2C1)c1cccc(NC2CCOC2)c1 (centres unmarked) [Compound 45, N-(3-(3,4-dihydroisoquinolin-2(1H)-yl)-2-hydroxypropyl)-3-((tetrahydrofuran-3-yl)amino)benzamide] | 101 to 1000 | – | –
O=C(NCC(O)CN1CCc2ccccc2C1)c1cccc(NCCN2CCOCC2)c1 (centres unmarked) [Compound 61] | 101 to 1000 | – | –
COCCNc1cccc(C(=O)NCC(O)CN2CCc3ccccc3C2)c1 (centres unmarked) [Compound 72] | 1000 to 10000 | – | –
O=C(NCC(O)CN1CCc2ccccc2C1)c1cncc(NC2CCOCC2)n1 (centres unmarked) [Compound 75] | 101 to 1000 | – | –
O=C(NCC(O)CN1CCc2ccccc2C1)c1nccc(NC2CCOCC2)n1 (centres unmarked) [Compound 76] | 101 to 1000 | – | –
O=C(NC[C@@H](O)CN1CCc2ccccc2C1)c1cccc(OC2CCOCC2)c1 [Compound 83] | 101 to 1000 | – | –
CC1=NN(c2ccc(C(=O)NCC(O)CN3CCc4ccccc4C3)cc2)C(=O)C1 (centres unmarked) [Compound 86] | 1000 to 10000 | – | –
CN1CCC(Oc2cccc(C(=O)NCC(O)CN3CCc4ccccc4C3)c2)C1 (centres unmarked) [Compound 134] | – | 10000 to 50000 | –
O=C(O)CCCN1CCN(Cc2cccc(C(=O)NCC(O)CN3CCc4ccccc4C3)c2)CC1 (centres unmarked) [Compound 158] | – | > 20000 | –
O=C(NC[C@@H](O)CN1CCc2ccccc2C1)c1cc(NC2COC2)ncn1 [Compound 367] | – | – | 101 to 1000
